From ChEMBL document CHEMBL4138088, “Novel 1-(7-ethoxy-1-benzofuran-2-yl) substituted chalcone derivatives: Synthesis, characterization and anticancer activity” (Eur J Med Chem, 2017)
Active and inactive are the calls of the source. The calls are words filed in the database; no cut-off is given here.

Tests used:
Type in all cases: functional, cell-based
[1] = tested on: MCF7; test: Growth inhibition of human MCF7 cells at 20 uM after 72 hrs by SRB assay
[2] = tested on: MCF7; test: Growth inhibition of human MCF7 cells at 20 uM after 72 hrs by ATP bioluminescence assay
[3] = tested on: PC-3; test: Growth inhibition of human PC3 cells at 20 uM after 72 hrs by ATP bioluminescence assay
[4] = tested on: PC-3; test: Growth inhibition of human PC3 cells at 20 uM after 72 hrs by SRB assay

| SMILES | growth inhibition (GI) [1] | growth inhibition (GI) [2] | growth inhibition (GI) [3] | growth inhibition (GI) [4] |
| --- | --- | --- | --- | --- |
| CCOc1cccc2cc(C(=O)/C=C/c3ccc(C)cc3)oc12 | Active | Active | – | – |
| CCOc1cccc2cc(C(=O)/C=C/c3cc(OC)c(OC)cc3OC)oc12 | Active | Active | Active | Active |
| CCOc1cccc2cc(C(=O)/C=C/c3ccc[nH]3)oc12 | Active | Active | – | – |
| CCOc1cccc2cc(C(=O)/C=C/c3ccco3)oc12 | Active | Active | – | – |
| CCOc1cccc2cc(C(=O)/C=C/c3ccc(OC)cc3)oc12 | Active | Active | – | – |
